Assays:
Experiment in all cases: relative viability (nuclei count vs DMSO), 5 days (fraction); higher = more cells survive
Lapatinib + Luminespib = compound: CS(=O)(=O)CCNCc1ccc(-c2ccc3ncnc(Nc4ccc(OCc5cccc(F)c5)c(Cl)c4)c3c2)o1 [Lapatinib] + CCNC(=O)c1noc(-c2cc(C(C)C)c(O)cc2O)c1-c1ccc(CN2CCOCC2)cc1 [Luminespib] (partner 0.01 µM)
Procedure, shortened: (§1)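 For relative viability, nuclei counts in treated wells were divided by those in vehicle wells. Lung cancer cell lines had been pin-tool dosed in 1536-well plates the day after seeding and cultured for 5 days, then fixed and stained in one step (final 0.05% Triton X-100, 1% formaldehyde, 1 ug/ml Hoechst) and imaged at 4×. Doses were one drug alone or a fixed anchor-drug dose plus five library-drug doses (not always all listed) in √10 steps, and values are duplicate-plate medians.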

Lapatinib + Tozasertib = compound: CS(=O)(=O)CCNCc1ccc(-c2ccc3ncnc(Nc4ccc(OCc5cccc(F)c5)c(Cl)c4)c3c2)o1 [Lapatinib] + Cc1cc(Nc2cc(N3CCN(C)CC3)nc(Sc3ccc(NC(=O)C4CC4)cc3)n2)n[nH]1 [Tozasertib] (partner 0.1 µM)
Procedure, shortened: as §1

Lapatinib + Olaparib = compound: CS(=O)(=O)CCNCc1ccc(-c2ccc3ncnc(Nc4ccc(OCc5cccc(F)c5)c(Cl)c4)c3c2)o1 [Lapatinib] + O=C(c1cc(Cc2n[nH]c(=O)c3ccccc23)ccc1F)N1CCN(C(=O)C2CC2)CC1 [Olaparib] (partner 8 µM)
Procedure, shortened: as §1

Wnt-C59 + Pictilisib = compound: CC1=NC=CC(=C1)C2=CC=C(C=C2)CC(=O)NC3=CC=C(C=C3)C4=CN=CC=C4 [Wnt-C59] + CS(=O)(=O)N1CCN(Cc2cc3nc(-c4cccc5[nH]ncc45)nc(N4CCOCC4)c3s2)CC1 [Pictilisib] (partner 1 µM)
Procedure, shortened: as §1

Row | Cell Line | relative viability (Lapatinib + Luminespib; first compound 0.06325 µM) | relative viability (Lapatinib + Luminespib; first compound 0.2 µM) | relative viability (Lapatinib + Luminespib; first compound 0.6325 µM) | relative viability (Lapatinib + Luminespib; first compound 2 µM) | relative viability (Lapatinib + Tozasertib; first compound 0.06325 µM) | relative viability (Lapatinib + Tozasertib; first compound 0.2 µM) | relative viability (Lapatinib + Tozasertib; first compound 0.6325 µM) | relative viability (Lapatinib + Tozasertib; first compound 2 µM) | relative viability (Lapatinib + Olaparib; first compound 0.02 µM) | relative viability (Lapatinib + Olaparib; first compound 0.06325 µM) | relative viability (Lapatinib + Olaparib; first compound 0.2 µM) | relative viability (Lapatinib + Olaparib; first compound 0.6325 µM) | relative viability (Lapatinib + Olaparib; first compound 2 µM) | relative viability (Wnt-C59 + Pictilisib; first compound 0.001 µM) | relative viability (Wnt-C59 + Pictilisib; first compound 0.01 µM) | relative viability (Wnt-C59 + Pictilisib; first compound 0.03162 µM) | relative viability (Wnt-C59 + Pictilisib; first compound 0.1 µM) | relative viability (Lapatinib + Luminespib; first compound 0.02 µM) | relative viability (Lapatinib + Tozasertib; first compound 0.02 µM)
1 | NCI-H2126 | 0.729 | 0.833 | 0.859 | 0.775 | 0.664 | 0.844 | 0.712 | 0.547 | 0.933 | 0.757 | 0.894 | 0.825 | 0.794 | 0.451 | 0.446 | 0.489 | 0.479 | – | –
2 | NCI-H1666 | 0.955 | 0.922 | 0.725 | 0.502 | 0.577 | 0.573 | 0.453 | 0.36 | 0.761 | 0.776 | 0.743 | 0.703 | 0.719 | 0.43 | 0.218 | 0.479 | 0.477 | 0.869 | 0.598
3 | NCI-H727 | – | 0.285 | 0.278 | 0.431 | – | 0.704 | 0.453 | 0.391 | 0.666 | – | 0.88 | 0.668 | 0.645 | 0.381 | 0.342 | 0.43 | 0.309 | – | 0.602
4 | LC-2-ad | 0.865 | 1.2 | 0.988 | 0.942 | 0.392 | 0.444 | 0.456 | 0.372 | – | 0.796 | 0.704 | 0.675 | 0.694 | 0.435 | 0.43 | 0.469 | 0.472 | – | –
5 | NCI-H522 | 1.09 | – | 1.03 | 0.794 | 0.433 | 0.523 | 0.561 | 0.513 | – | 0.467 | 0.575 | 0.572 | 0.518 | – | – | – | – | – | –
6 | SW 900 | 0.176 | 0.17 | 0.164 | 0.175 | 0.35 | 0.374 | 0.298 | 0.276 | – | 0.78 | 0.574 | 0.864 | 0.56 | – | – | – | – | – | –
7 | HCC-366 | – | – | – | – | 0.0794 | 0.0593 | 0.0794 | 0.0545 | – | 0.411 | 0.38 | 0.38 | 0.251 | 0.113 | 0.138 | 0.149 | 0.155 | – | –
8 | IA-LM | – | – | – | – | – | – | – | – | 0.789 | 0.855 | 0.778 | 0.886 | 0.843 | 0.271 | 0.251 | 0.337 | 0.375 | – | –
9 | NCI-H1648 | – | – | – | – | 0.215 | 0.689 | 0.361 | 0.325 | – | 0.466 | 0.588 | 0.769 | 0.28 | – | – | – | – | – | 0.361
10 | NCI-H1792 | – | 0.413 | 0.403 | 0.255 | – | – | – | – | – | – | 0.377 | 0.342 | 0.351 | 0.273 | 0.25 | 0.225 | 0.332 | – | –
11 | HCC-78 | – | – | – | – | 0.327 | 0.407 | 0.377 | 0.328 | – | 0.519 | 0.926 | 0.814 | 0.846 | 0.22 | 0.185 | 0.226 | 0.257 | – | –
12 | EBC-1 | – | – | – | – | – | – | – | – | 0.736 | 0.78 | 0.703 | 0.759 | 0.489 | 0.444 | 0.349 | 0.299 | 0.418 | – | –

— the supplement of paper PMC10307832
